In brackets after ≈: the same amount, converted by molar mass. Activity calls are given as the source filed them. Where a SMILES comes first, the peptide text is derived from it.

Series [1] deals with Pseudomonas aeruginosa. Kind of series: Antibiofilm activity against Pseudomonas aeruginosa PAO1 incubated for 24 hrs under shaking condition by turbidometric method. Type of series: functional.
A short description of series [2]: Aggregation property of the compound in RPMI medium with 1% FBS at 1 mg/ml by turbidimetric method. In kind it is physicochemical.
The subject of series [3] is PBMC. Briefly: Immunomodulatory activity in human PBMC assessed as increase in IL-1RA production at 25 ug/ml measured after overnight incubation by ELISA. Type of series: functional, tissue-based. As to conditions: dose 25.0 µg/ml.
Series [4] has as its system Acinetobacter baumannii. Kind of series: Antibiofilm activity against Acinetobacter baumannii 17918 incubated for 24 hrs under shaking condition by turbidometric method. Type of series: functional.
The subject of series [5] is PBMC. Briefly: Immunomodulatory activity in human PBMC assessed as increase in MCP1 production at 25 ug/ml measured after overnight incubation by ELISA. In kind it is functional, tissue-based. The following applies: dose 25.0 µg/ml. In general terms: In an ELISA, binding on a coated surface is turned into a signal by an enzyme label.
Series [6] concerns the target T1, Trypsin (Homo sapiens, UniProt P07477+P07478+P35030). Kind of series: Stability of the compound in pH 8.2 ammonium bicarbonate buffer assessed as trypsin (unknown origin)-mediated drug degradation at 20 ug/ml measured up to 120 mins by MALDI-TOF analysis. In kind it is ADME, protein assay. As to conditions: pH 8.2, 2 h, at 20 µg/mL.
Series [7] is described as follows: Aggregation of the compound in human PBMC assessed as amorphous morphology at 50 ug/ml measured after 4 hrs by microscopic analysis. In kind it is ADME, tissue-based. As to conditions: dose 50 µg/ml.
Series [8] can be described thus: Cytotoxicity against human PBMC assessed as reduction in cell viability at 100 ug/ml measured after 24 hrs by LDH assay. In kind it is tissue-based. The following applies: dose 100 µg/ml.
A short description of series [9]: Aggregation property of the compound in sodium phosphate solution at 10 mM by turbidimetric method. The following applies: 10000 µM. In kind it is physicochemical.
Series [10] deals with Acinetobacter baumannii. Kind of series: Antibacterial activity against Acinetobacter baumannii 5015 measured after overnight incubation by microtitre plate based spectrophotometric method. In kind it is functional.
A short description of series [11]: Aggregation property of the compound in saline at 1 mg/ml by turbidimetric method. In kind it is physicochemical. The following applies: buffer.
Series [12] in a line: Aggregation property of the compound in water at 1 mg/ml by turbidimetric method. The following applies: buffer. In kind it is physicochemical.
Series [13] has as its system Pseudomonas aeruginosa. Briefly: Antibacterial activity against Pseudomonas aeruginosa PA14 measured after overnight incubation by microtitre plate based spectrophotometric method. Type of series: functional.
The test system of series [14] is Staphylococcus aureus. Kind of series: Antibacterial activity against methicillin-resistant Staphylococcus aureus USA300 LAC measured after overnight incubation by microtitre plate based spectrophotometric method. In kind it is functional.
The subject of series [15] is Pseudomonas aeruginosa. Kind of series: Antibiofilm activity against Pseudomonas aeruginosa PA14 incubated for 24 hrs under shaking condition by turbidometric method. Type of series: functional.
The target in series [16] is T1, Trypsin. Briefly: Stability of the compound in pH 8.2 ammonium bicarbonate buffer assessed as trypsin (unknown origin)-mediated drug degradation at 20 ug/ml measured up to 120 mins by RP-HPLC analysis. Type of series: ADME, protein assay. The following applies: pH 8.2, 2 h, at 20 µg/mL.
For series [17], the system named is Escherichia coli. Briefly: Antibiofilm activity against Escherichia coli ATTC 489 incubated for 24 hrs under shaking condition by turbidometric method. Type of series: functional.
Series [18] has as its system Klebsiella pneumoniae. Kind of series: Antibiofilm activity against Klebsiella pneumoniae ATTC 13883 incubated for 24 hrs under shaking condition by turbidometric method. Type of series: functional.
Series [19] is described as follows: Aggregation property of the compound in 5% dextrose at 1 mg/ml by turbidimetric method. Type of series: physicochemical.
Series [20] has as its system Acinetobacter baumannii. Briefly: Antibiofilm activity against Acinetobacter baumannii 5015 incubated for 24 hrs under shaking condition by turbidometric method. In kind it is functional.
A short description of series [21]: Aggregation property of the compound in sodium citrate solution at 10 mM by turbidimetric method. Type of series: physicochemical. As to conditions: 10000 µM.
Series [22] deals with Staphylococcus aureus. Briefly: Antibacterial activity against methicillin-resistant Staphylococcus aureus SAP0017 measured after overnight incubation by microtitre plate based spectrophotometric method. In kind it is functional.
For series [23], the system named is PBMC. Kind of series: Immunomodulatory activity in human PBMC assessed as change in TNFalpha production at 25 ug/ml measured after overnight incubation by ELISA. The following applies: dose 25.0 µg/ml. Type of series: functional, tissue-based.
The subject of series [24] is Klebsiella pneumoniae. Briefly: Antibacterial activity against Klebsiella pneumoniae ATTC 13883 measured after overnight incubation by microtitre plate based spectrophotometric method. Type of series: functional.
The subject of series [25] is Staphylococcus aureus. Kind of series: Antibiofilm activity against methicillin-resistant Staphylococcus aureus SAP0017 incubated for 24 hrs under shaking condition by turbidometric method. Type of series: functional.
Series [26] deals with Acinetobacter baumannii. Kind of series: Antibacterial activity against Acinetobacter baumannii 17918 measured after overnight incubation by microtitre plate based spectrophotometric method. In kind it is functional.
Series [27] is described as follows: Aggregation property of the compound in sodium nitrate solution at 10 mM by turbidimetric method. Type of series: physicochemical. The following applies: 10000 µM.
The subject of series [28] is Escherichia coli. Briefly: Antibacterial activity against Escherichia coli ATTC 489 measured after overnight incubation by microtitre plate based spectrophotometric method. In kind it is functional.
The subject of series [29] is Staphylococcus aureus. Briefly: Antibiofilm activity against methicillin-resistant Staphylococcus aureus USA300 LAC incubated for 24 hrs under shaking condition by turbidometric method. Type of series: functional.
The subject of series [30] is Pseudomonas aeruginosa. Kind of series: Antibacterial activity against Pseudomonas aeruginosa PAO1 measured after overnight incubation by microtitre plate based spectrophotometric method. Type of series: functional.
The test system of series [31] is Pseudomonas aeruginosa. Kind of series: Antibiofilm activity against 24 hrs preformed Pseudomonas aeruginosa PAO1 biofilm assessed as reduction in biofilm viability at 100 ug/ml by TTC assay. In kind it is functional, organism-based. As to conditions: dose 100.0 µg/ml.
For series [32], the system named is Acinetobacter baumannii. Kind of series: Antibiofilm activity against 24 hrs preformed Acinetobacter baumannii 17918 biofilm assessed as reduction in biofilm viability at 100 ug/ml by TTC assay. As to conditions: dose 100.0 µg/ml. In kind it is functional, organism-based.
Series [33] has as its system Klebsiella pneumoniae. Briefly: Antibiofilm activity against 24 hrs preformed Klebsiella pneumoniae ATTC 13883 biofilm assessed as reduction in biofilm viability at 100 ug/ml by TTC assay. Type of series: functional, organism-based. As to conditions: dose 100.0 µg/ml.
For series [34], the system named is Pseudomonas aeruginosa. Kind of series: Antibiofilm activity against 24 hrs preformed Pseudomonas aeruginosa PA14 biofilm assessed as reduction in biofilm viability at 100 ug/ml by TTC assay. Type of series: functional, organism-based. The following applies: dose 100.0 µg/ml.
Series [35] deals with Acinetobacter baumannii. Briefly: Antibiofilm activity against 24 hrs preformed Acinetobacter baumannii 5015 biofilm assessed as reduction in biofilm viability at 100 ug/ml by TTC assay. Type of series: functional, organism-based. The following applies: dose 100.0 µg/ml.
Series [36] has as its system Escherichia coli. Briefly: Antibiofilm activity against 24 hrs preformed Escherichia coli ATTC 489 biofilm assessed as reduction in biofilm viability at 100 ug/ml by TTC assay. As to conditions: dose 100.0 µg/ml. In kind it is functional, organism-based.

For the compound `CC[C@H](C)[C@@H]1NC(=O)[C@H](CCCNC(=N)N)NC(=O)[C@H](C(C)C)NC(=O)[C@H](C)NC(=O)[C@H](C(C)C)NC(=O)[C@H]([C@@H](C)CC)NC(=O)[C@H](CC(C)C)NC(=O)[C@H](CCCNC(=N)N)NC(=O)[C@H](C(C)C)NC(=O)[C@H](CCCNC(=N)N)NC(=O)[C@H](CCCNC(=N)N)NC(=O)[C@H](Cc2c[nH]c3ccccc23)NC1=O` (cyclo(AVRIWRRVRLIV)), the MBEC in the series on Pseudomonas aeruginosa [1], in the series with Acinetobacter baumannii [4], with Pseudomonas aeruginosa [15], in the series with Escherichia coli [17], in the series on Klebsiella pneumoniae [18] and with Acinetobacter baumannii [20] was greater than 65.8 µM each time. For the same compound, the MBEC with Staphylococcus aureus [25] and with Staphylococcus aureus [29] was 65.8 µM in each case. In addition, the Activity entry in [2] is on record as “Active”; in series [7], “Not Active”; in series [8], “Toxic”; in series [9] it was “Not Active”; in series [11], “Not Active”; in series [12], “Not Active”. The Activity entry in [19], in [21] and in series [27] was “Not Active” throughout. In addition, the outcome in the series on PBMC [3], in the series on PBMC [5] and with PBMC [23] was Active. Moreover, the Stabilty entry at Trypsin [6] and at Trypsin [16] was “Stable” in each case. Also, the MIC – broadly, the smallest concentration in the dilution series that meets the test's criterion for growth inhibition – was 65.8 µM (≈ 99.9 µg/mL) in the series on Acinetobacter baumannii [10]; greater than 65.8 µM in the series with Pseudomonas aeruginosa [13]; 65.8 µM (≈ 99.9 µg/mL) in the series with Staphylococcus aureus [14]; 65.8 µM (≈ 99.9 µg/mL) in the series on Staphylococcus aureus [22]; 65.8 µM (≈ 99.9 µg/mL) in the series on Klebsiella pneumoniae [24]; 65.8 µM (≈ 99.9 µg/mL) against Acinetobacter baumannii [26]. The values for the MIC against Escherichia coli [28] and in the series on Pseudomonas aeruginosa [30] were 65.8 µM (≈ 99.9 µg/mL) and greater than 65.8 µM, respectively.

As to COLISTIN, the MBEC in the series on Pseudomonas aeruginosa [1], in the series on Acinetobacter baumannii [4], in the series on Pseudomonas aeruginosa [15], in the series on Escherichia coli [17], in the series with Klebsiella pneumoniae [18] and with Acinetobacter baumannii [20] was greater than 86 µM throughout. Further, the MBEC with Staphylococcus aureus [25] and with Staphylococcus aureus [29] was greater than 86 µM in each case. For the same compound, the outcome in the series with Pseudomonas aeruginosa [31], in the series with Acinetobacter baumannii [32], in the series with Klebsiella pneumoniae [33], in the series on Pseudomonas aeruginosa [34], in the series on Acinetobacter baumannii [35] and in the series with Escherichia coli [36] was inactive. Moreover, the MIC was 1.2 µM with Acinetobacter baumannii [10]; 2.5 µM against Pseudomonas aeruginosa [13]; greater than 86 µM in the series on Staphylococcus aureus [14]; greater than 86 µM against Staphylococcus aureus [22]; 1.2 µM against Klebsiella pneumoniae [24]; 1.2 µM against Acinetobacter baumannii [26]. The results for the minimum inhibitory concentration (MIC) against Escherichia coli [28] and against Pseudomonas aeruginosa [30] were 1.2 µM and 2.5 µM, respectively.

With `CCCCCCCCCCCCCCCC[N+](C)(C)Cc1ccccc1.[Cl-]` [CETALKONIUM CHLORIDE], the MBEC is greater than 126 µM with Pseudomonas aeruginosa [1]; 40.3 µM in the series with Acinetobacter baumannii [4]; greater than 126 µM with Pseudomonas aeruginosa [15]; 40.3 µM in the series with Escherichia coli [17]; 63.1 µM in the series with Klebsiella pneumoniae [18]; 40.3 µM in the series with Acinetobacter baumannii [20]. The MBEC with Staphylococcus aureus [25] amounted to 15.1 µM; in the series with Staphylococcus aureus [29], 20.1 µM. Also, the MIC was 7.8 µM against Acinetobacter baumannii [10]; greater than 126 µM with Pseudomonas aeruginosa [13]; 3.7 µM in the series with Staphylococcus aureus [14]; 3.7 µM against Staphylococcus aureus [22]; 7.8 µM against Klebsiella pneumoniae [24]; 7.8 µM in the series on Acinetobacter baumannii [26]. Moreover, the MIC in the series with Escherichia coli [28] is 7.8 µM; against Pseudomonas aeruginosa [30], greater than 126 µM.

As for `CN[C@H](CC(C)C)C(=O)N[C@H]1C(=O)N[C@@H](CC(N)=O)C(=O)N[C@H]2C(=O)N[C@H]3C(=O)N[C@H](C(=O)N[C@H](C(=O)O)c4cc(O)cc(O)c4-c4cc3ccc4O)[C@H](O)c3ccc(c(Cl)c3)Oc3cc2cc(c3O[C@@H]2O[C@H](CO)[C@@H](O)[C@H](O)[C@H]2O[C@H]2C[C@](C)(N)[C@H](O)[C@H](C)O2)Oc2ccc(cc2Cl)[C@H]1O` [VANCOMYCIN], the MBEC with Pseudomonas aeruginosa [1], in the series with Acinetobacter baumannii [4], in the series with Pseudomonas aeruginosa [15], with Escherichia coli [17], in the series with Klebsiella pneumoniae [18] and in the series on Acinetobacter baumannii [20] was greater than 68 µM throughout. The MBEC in the series on Staphylococcus aureus [25] and in the series on Staphylococcus aureus [29] was greater than 68 µM throughout. The MIC in the series with Acinetobacter baumannii [10] was greater than 68 µM; in the series on Pseudomonas aeruginosa [13] it was greater than 68 µM; in the series with Staphylococcus aureus [14], 0.4 µM (≈ 0.58 µg/mL); in the series on Staphylococcus aureus [22], 0.4 µM (≈ 0.58 µg/mL); against Klebsiella pneumoniae [24], greater than 68 µM; against Acinetobacter baumannii [26] it was greater than 68 µM. For the same compound, the MIC with Escherichia coli [28] and against Pseudomonas aeruginosa [30] was greater than 68 µM in each case.
